Assay results from PubChem BioAssay (NCI).
“And” between values parts separate entries of the source, which are not always exact repeats. Equal entries are not always repeated.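 Following 48 hours of exposure in 96-well plates, responses at five concentrations were used to interpolate endpoints linearly. GI50 marks 50% less growth. The concentration for full growth arrest is given as TGI.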

Test system: MDA-MB-468 breast
Assay: NCI tumour cell line growth inhibition, 48 h

Structure (SMILES) | GI50 | TGI
O=C(CCCN1CC=C(n2c(=O)[nH]c3ccccc32)CC1)c1ccc(F)cc1 | 18800 nM | 59500 nM
Cc1ccc2c(n1)C(=O)C(Cl)=C(Nc1ccc(C(F)(F)F)cc1)C2=O | 1890 nM | 4000 nM
Cc1sc2nc(NCCc3c[nH]c4ccc(Cl)cc34)[nH]c(=O)c2c1C | 2130 nM | 4680 nM
Cc1ccc(N(CSc2ccc(Cl)cc2)CSc2ccc(Cl)cc2)cc1 | 1910 nM | 6230 nM
O=C1/C(=C\c2cccn2Cc2ccccc2)c2ccccc2N1c1c(Cl)cccc1Cl | 118 nM | 463 nM
CC(=O)Oc1ccccc1C(=O)N=C1[Se]CCN1C(=O)c1ccccc1OC(C)=O | 740 nM | 2670 nM
O=C(Nc1cccc(Cl)c1)c1cc2ccccc2cc1O | 2200 nM and 1910 nM | 10400 nM and 6670 nM
Cc1c(C2Nc3ccccc3C2C)[nH]c2ccccc12 (stereo not given) | 10400 nM | 27800 nM
CCN(CC)CCOc1ccc(/C(=C(\C)c2ccc(F)c(OC)c2)c2ccc(Cl)cc2)cc1 | 1910 nM | 4230 nM
Cc1n(Cc2ccc3ccccc3c2)cc[n+]1Cc1ccc2ccccc2c1 | 252 nM | 819 nM
NC(=O)C(=CNc1nc(-c2ccc(Cl)c(Cl)c2)cs1)C(N)=O | > 100000 nM | > 100000 nM
O=C(CN(C1CCCCC1)C1CCCCC1)Nc1ccc(S(=O)(=O)c2ccc(NC(=O)CN(C3CCCCC3)C3CCCCC3)cc2)cc1 | 1040 nM | 2930 nM
CC(=O)O[C@@H]1C[C@]2(C(C)C)O[C@@]1(C)[C@@H]1CCC(C)=C1[C@@H]2OC(=O)/C=C/c1ccccc1 | 24200 nM | > 100000 nM
CN1CCc2c(Sc3ccc(C(=O)NO)cc3)c3ccccc3n2C1 | 1120 nM | 2920 nM
CCc1cccc2c3c(sc12)C(c1ccc(Cl)cc1)C(C#N)=C(/N=C/c1ccc(Cl)cc1)O3 (stereo not given) | 565 nM | 2460 nM
c1ccc2c3ccn4cc5c(cc4c-3nc2c1)CCCC5 | 1390 nM | 3600 nM
COc1cc2cn3c4ccc(O)cc4[nH]c(=O)c3c2cc1OC | 20 nM | 56.8 nM
CCN(CC)CC(C)(C)C(=O)/C=C/c1ccc(Cl)c(Cl)c1 | 1690 nM | 3420 nM
CC(=O)Oc1ccc(Nc2c3ccccc3nc3ccccc23)cc1 | 913 nM | 3010 nM
C#C[C@]1(O)CC[C@H]2[C@@H]3CC=C4c5sc(Nc6ccccc6)nc5CC[C@]4(C)[C@H]3CC[C@@]21C | 1710 nM | 4250 nM
Cc1cc(NC(=O)c2ccc(C)c(Nc3nccc(-c4cccnc4)n3)c2)cc(-n2cnc(C)c2)c1 | 1220 nM | 3270 nM
CCCCCc1c(C)[nH]c(/C=C2\N=C(c3ccc[nH]3)C=C2CC)c1C | 21.5 nM | 90.4 nM
Cc1ccc(Nc2nc(N)c(C(=O)c3ccc(C#N)cc3)s2)cc1 | 229 nM | 663 nM
COC(=O)[C@@H](NC(=O)[C@@H](OC)[C@@H]1Cc2cc3cc(OC4CC(OC5CC(O)C(O)C(C)O5)C(O)C(C)O4)c(C)c(O)c3c(O)c2C(=O)[C@H]1OC1CC(OC2CC(OC3CC(C)(O)C(O)C(C)O3)C(O)C(C)O2)C(O)C(C)O1)C(C)C (stereo not given in full) | 131 nM | 2600 nM
O=C(Nc1ccc(Cl)cc1F)c1cc(Br)ccc1O | 1130 nM | 4450 nM
